Laboratory results from ChEMBL document CHEMBL5257132, “Discovery of a Novel Series of Potent SHP2 Allosteric Inhibitors” (ACS Med Chem Lett, 2023).
In brackets after ≈: the same amount, converted by molar mass.

Columns and labels:
[1] = Inhibition of ERK phosphorylation in human KYSE520 cells incubated for 2 hrs by TR-FRET assay; type: cell-based; conditions: KYSE-520, 2 h
[2] = target: Voltage-gated inwardly rectifying potassium channel KCNH2 (Homo sapiens, UniProt Q12809); assay: Inhibition of human ERG by fluorescence polarization assay; type: toxicity
Sequence of Voltage-gated inwardly rectifying potassium channel KCNH2 (Q12809 whole entry): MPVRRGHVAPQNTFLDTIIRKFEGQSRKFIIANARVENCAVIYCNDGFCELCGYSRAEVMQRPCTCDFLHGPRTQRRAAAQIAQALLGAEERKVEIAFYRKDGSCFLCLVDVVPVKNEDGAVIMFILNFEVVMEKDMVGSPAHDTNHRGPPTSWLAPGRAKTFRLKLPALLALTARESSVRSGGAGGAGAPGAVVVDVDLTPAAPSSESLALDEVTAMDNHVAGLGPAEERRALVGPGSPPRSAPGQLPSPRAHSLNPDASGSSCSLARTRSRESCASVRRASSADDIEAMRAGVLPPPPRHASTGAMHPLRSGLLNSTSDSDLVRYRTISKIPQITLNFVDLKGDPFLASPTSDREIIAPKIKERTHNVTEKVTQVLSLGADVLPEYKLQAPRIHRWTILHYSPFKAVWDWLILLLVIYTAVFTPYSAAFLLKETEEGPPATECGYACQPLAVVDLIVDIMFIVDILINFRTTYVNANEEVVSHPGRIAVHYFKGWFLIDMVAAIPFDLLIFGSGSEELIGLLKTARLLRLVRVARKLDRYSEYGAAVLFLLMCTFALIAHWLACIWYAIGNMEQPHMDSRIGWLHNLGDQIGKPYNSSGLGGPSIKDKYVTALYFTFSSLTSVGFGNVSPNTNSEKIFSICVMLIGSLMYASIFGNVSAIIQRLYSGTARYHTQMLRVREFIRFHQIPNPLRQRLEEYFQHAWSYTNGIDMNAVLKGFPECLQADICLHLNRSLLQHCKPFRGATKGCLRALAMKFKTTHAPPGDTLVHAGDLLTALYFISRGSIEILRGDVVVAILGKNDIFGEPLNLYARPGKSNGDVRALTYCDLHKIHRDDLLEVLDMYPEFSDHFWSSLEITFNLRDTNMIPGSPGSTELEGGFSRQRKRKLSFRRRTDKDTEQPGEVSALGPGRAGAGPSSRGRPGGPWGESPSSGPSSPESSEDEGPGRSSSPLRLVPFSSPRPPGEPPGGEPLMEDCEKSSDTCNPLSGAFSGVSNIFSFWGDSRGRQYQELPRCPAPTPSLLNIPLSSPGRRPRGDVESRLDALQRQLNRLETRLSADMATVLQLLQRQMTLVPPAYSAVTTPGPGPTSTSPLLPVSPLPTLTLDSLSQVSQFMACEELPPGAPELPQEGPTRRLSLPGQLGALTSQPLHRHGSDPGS

[3] = tested on: KYSE-520 cell line; assay: Antiproliferative activity against human KYSE520 cells assessed as inhibition of cell proliferation incubated for 96 hrs by CellTiter-Glo reagent based assay; type: functional; conditions: KYSE-520, 96 h
[4] = target: T1, Tyrosine-protein phosphatase non-receptor type 11 (Homo sapiens, UniProt Q06124); assay: Allosteric inhibition of recombinant human SHP2 using IRS1 peptide and DiFMUP as substrate incubated for 30 mins followed by DiFMUP addition and measured after 30 mins by fluorescence based microplate reader analysis
T1 sequence (Q06124 whole entry): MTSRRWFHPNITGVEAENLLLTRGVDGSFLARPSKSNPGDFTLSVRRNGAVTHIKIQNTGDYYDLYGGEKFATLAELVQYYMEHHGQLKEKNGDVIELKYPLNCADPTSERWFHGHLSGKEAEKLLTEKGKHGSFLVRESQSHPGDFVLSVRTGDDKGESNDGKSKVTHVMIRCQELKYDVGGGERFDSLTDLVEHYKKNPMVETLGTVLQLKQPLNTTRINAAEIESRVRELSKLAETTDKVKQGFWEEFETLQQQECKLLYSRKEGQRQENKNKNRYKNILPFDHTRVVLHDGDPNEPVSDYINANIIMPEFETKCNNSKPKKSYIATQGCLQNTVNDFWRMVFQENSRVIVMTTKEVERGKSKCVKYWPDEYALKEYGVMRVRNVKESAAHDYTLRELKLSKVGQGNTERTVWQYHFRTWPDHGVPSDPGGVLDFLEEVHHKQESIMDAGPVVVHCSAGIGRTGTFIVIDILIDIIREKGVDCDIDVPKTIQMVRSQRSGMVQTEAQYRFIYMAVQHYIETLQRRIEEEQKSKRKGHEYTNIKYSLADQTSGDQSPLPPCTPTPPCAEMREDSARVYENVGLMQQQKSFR

[5] = Apparent permeability of compound at pH 7.4 at 5 uM incubated for 4 hrs by PAMPA based LC-MS/MS analysis; type: ADME
[6] = Kinetic solubility of compound in FaSSIF by LCMS analysis; type: ADME; conditions: read-out: Kinetic_solubility
[7] = Kinetic solubility of compound in FeSSIF by LCMS analysis; type: ADME; conditions: read-out: Kinetic_solubility
[8] = Kinetic solubility of compound in FaSSGF by LCMS analysis; type: ADME; conditions: read-out: Kinetic_solubility
[9] = Apparent permeability of compound in dog MDCK-MDR1 cells by LC-MS/MS analysis; type: ADME, cell-based, Canis lupus familiaris
[10] = Efflux ratio of apparent permeability […] in dog MDCK-MDR1 cells by LC-MS/MS analysis; type: ADME, cell-based, Canis lupus familiaris
[11] = Metabolic stability in Sprague-Dawley rat liver microsomes assessed as intrinsic clearance at 1 uM and measured upto 60 mins in presence of NADPH as cofactor by LC-MS/MS analysis; type: ADME, Microsome; conditions: read-out: CLH
[12] = Metabolic stability in human liver microsomes assessed as intrinsic clearance at 1 uM and measured upto 60 mins in presence of NADPH as cofactor by LC-MS/MS analysis; type: ADME, Microsome; conditions: read-out: CLH
[13] = Clearance in Sprague-Dawley rat plasma at 0.5 mg/kg, iv and measured upto 24 hrs by LC-MS/MS analysis; type: ADME, organism-based
[14] = Volume of distribution at steady state in Sprague-Dawley rat plasma at 0.5 mg/kg, iv and measured upto 24 hrs by LC-MS/MS analysis; type: ADME, organism-based; conditions: read-out: Vdss
[15] = Half life in Sprague-Dawley rat plasma at 0.5 mg/kg, iv and measured upto 24 hrs by LC-MS/MS analysis; type: ADME, organism-based
[16] = Cmax in Sprague-Dawley rat plasma at 1 mg/kg, po administered as 60:20:20 PEG400/DMSO/H2O formulation and measured upto 24 hrs by LC-MS/MS analysis; type: ADME, organism-based; design: dose 1 mg/kg, time < 24 hrs, route po
[17] = AUC in Sprague-Dawley rat plasma at 1 mg/kg,po administered as 60:20:20 PEG400/DMSO/H2O formulation and measured upto 24 hrs by LC-MS/MS analysis; type: ADME, organism-based; design: time < 24 hrs, dose 1 mg/kg, route po
[18] = Oral bioavailability in Sprague-Dawley rat plasma at 1 mg/kg administered as 60:20:20 PEG400/DMSO/H2O formulation and measured upto 24 hrs by LC-MS/MS analysis; type: ADME, organism-based
[19] = AUC in Sprague-Dawley rat plasma at 1 mg/kg,po administered as 60:20:20 PEG400/DMSO/H2O formulation and measured upto 24 hrs in presence of Elacridar by LC-MS/MS analysis; type: ADME, organism-based; design: time < 24 hrs, dose 1 mg/kg, route po; conditions: with Elacridar (dose not stated)
[20] = AUC in Sprague-Dawley rat plasma at 1 mg/kg,po administered as 50:50 PEG400/Labrasol formulation and measured upto 24 hrs by LC-MS/MS analysis; type: ADME, organism-based; design: dose 1 mg/kg, time < 24 hrs, route po

Compound	IC50 [1]	IC50 [2]	IC50 [4]	other results
Cc1nc(N2CCC3(CC2)CO[C@@H](C)[C@H]3N)c(CO)nc1-c1cccc(Cl)c1Cl	22 nM	3350 nM	–	IC50 [3]: 4550 nM
N[C@]1(c2ccccc2)[C@@H]2CCN(c3cnc4c(-c5cccc(Cl)c5Cl)n[nH]c4n3)C[C@@H]21	–	–	1460 nM	–
NC[C@]1(c2ccccc2)[C@@H]2CN(c3nc4nc(Sc5cccnc5C(F)(F)F)cnc4[nH]3)C[C@@H]21	–	–	> 8000 nM	–
Cc1csc([C@@]2(CN)[C@@H]3CCN(c4cnc5c(-c6ccc7nc(C)sc7c6Cl)n[nH]c5n4)C[C@@H]32)n1	4 nM	24 nM	2 nM	Papp at 4 h, 5 µM [5]: 4.36 ×10⁻⁶ cm/s
Cn1cc2c(Cl)c(-c3n[nH]c4nc(N5C[C@@H]6[C@H](C5)[C@@]6(CN)c5cnsn5)cnc34)ccc2n1	30 nM	> 30000 nM	4 nM	–
Cc1csc([C@@]2(CN)[C@@H]3CCN(c4nc5nc(Sc6cccnc6C(F)(F)F)cnc5[nH]4)C[C@@H]32)n1	210 nM	–	9 nM	–
NC[C@]1(c2ccccn2)[C@@H]2CCN(c3cnc4c(-c5cccc(Cl)c5Cl)n[nH]c4n3)C[C@@H]21	42 nM	42 nM	5 nM	–
Cc1csc([C@@]2(CN)[C@@H]3CCN(c4cnc(Sc5cccnc5C(F)(F)F)c(N)n4)C[C@@H]32)n1	9 nM	–	65 nM	–
Cc1nc([C@@]2(CN)[C@@H]3CN(c4cnc5c(-c6ccc7nn(C)cc7c6Cl)n[nH]c5n4)C[C@@H]32)cs1	89 nM	> 30000 nM	6 nM	–
NC[C@]1(c2ccccn2)[C@@H]2CCN(c3nc4nc(Sc5cccnc5C(F)(F)F)cnc4[nH]3)C[C@@H]21	477 nM	–	17 nM	–
Cc1cccc([C@@]2(CN)[C@@H]3CN(c4cnc5c(-c6ccc7nn(C)cc7c6Cl)n[nH]c5n4)C[C@@H]32)n1	90 nM	5870 nM	4 nM	–
Cn1cc2c(Cl)c(-c3n[nH]c4nc(N5C[C@@H]6[C@H](C5)[C@@]6(CN)c5nc(Cl)cs5)cnc34)ccc2n1	9 nM	12300 nM	5 nM	IC50 [3]: 183 nM
Cn1cc2c(Cl)c(-c3n[nH]c4nc(N5C[C@@H]6[C@H](C5)[C@@]6(CN)c5ccccn5)cnc34)ccc2n1	40 nM	8960 nM	5 nM	–
Cc1csc([C@@]2(CN)[C@@H]3CN(c4cnc5c(-c6ccc7nc(C)sc7c6Cl)n[nH]c5n4)C[C@@H]32)n1	22 nM	1660 nM	5 nM	–
NC[C@]1(c2ccsc2)[C@@H]2CCN(c3cnc4c(-c5cccc(Cl)c5Cl)n[nH]c4n3)C[C@@H]21	100 nM	109 nM	8 nM	–
NC[C@]1(c2ccccn2)[C@@H]2CCN(c3cnc(Sc4cccnc4C(F)(F)F)c(N)n3)C[C@@H]21	20 nM	–	68 nM	–
Cc1nnc([C@@]2(CN)[C@@H]3CN(c4cnc5c(-c6ccc7nn(C)cc7c6Cl)n[nH]c5n4)C[C@@H]32)s1	162 nM	> 30000 nM	10 nM	–
NC[C@]1(c2ccsc2)[C@@H]2CCN(c3cnc4c(-c5cccnc5C(F)(F)F)n[nH]c4n3)C[C@@H]21	> 666 nM	5560 nM	34 nM	–
NC[C@]1(c2ccsc2)[C@@H]2CCN(c3nc4nc(Sc5cccnc5C(F)(F)F)cnc4[nH]3)C[C@@H]21	> 1330 nM	–	54 nM	–

Compound	IC50 [1]	IC50 [2]	IC50 [4]	other results
Cc1csc([C@@]2(CN)[C@@H]3CCN(c4cnc5c(-c6ccc7nn(C)cc7c6Cl)n[nH]c5n4)C[C@@H]32)n1	14 nM	107 nM	6 nM	–
Cn1ccc([C@@]2(CN)[C@@H]3CN(c4cnc5c(-c6ccc7nn(C)cc7c6Cl)n[nH]c5n4)C[C@@H]32)n1	153 nM	> 30000 nM	7 nM	–
N[C@]1(c2ccccc2)[C@@H]2CN(c3nc4nc(Sc5cccnc5C(F)(F)F)cnc4[nH]3)C[C@@H]21	–	–	> 8000 nM	–
Cc1csc([C@]2(CN)[C@@H]3CCN(c4cnc5c(-c6cccc(Cl)c6Cl)n[nH]c5n4)C[C@@H]32)n1	28 nM	58 nM	3 nM	Papp at 4 h, 5 µM [5]: 1.75 ×10⁻⁶ cm/s
Cc1csc([C@@]2(CN)[C@@H]3CCN(c4cnc5c(-c6ccn7nccc7c6Cl)n[nH]c5n4)C[C@@H]32)n1	22 nM	12 nM	3 nM	–
NC[C@]1(c2ccccc2)[C@@H]2CCN(c3nc4nc(Sc5cccnc5C(F)(F)F)cnc4[nH]3)C[C@@H]21	> 1330 nM	–	94 nM	–
Cn1cc2c(Cl)c(-c3n[nH]c4nc(N5C[C@@H]6[C@H](C5)[C@@]6(CN)c5ccccc5)cnc34)ccc2n1	70 nM	5350 nM	9 nM	–
Cn1cc2c(Cl)c(-c3n[nH]c4nc(N5C[C@@H]6[C@H](C5)[C@@]6(CN)c5nc(C(F)(F)F)cs5)cnc34)ccc2n1	21 nM	> 30000 nM	12 nM	IC50 [3]: 231 nM
Cc1csc([C@@]2(CN)[C@@H]3CCN(c4cnc5c(-c6cccnc6C(F)(F)F)n[nH]c5n4)C[C@@H]32)n1	> 666 nM	5060 nM	55 nM	–
Cc1ccn([C@@]2(CN)[C@@H]3CN(c4cnc5c(-c6ccc7nn(C)cc7c6Cl)n[nH]c5n4)C[C@@H]32)n1	444 nM	> 30000 nM	49 nM	–
Cc1csc([C@]2(CN)[C@@H]3CN(c4cnc5c(-c6cccc(Cl)c6Cl)n[nH]c5n4)CC[C@@H]32)n1	–	769 nM	370 nM	–
N[C@]1(c2ccccc2)[C@@H]2CCN(c3nc4nc(Sc5cccnc5C(F)(F)F)cnc4[nH]3)C[C@@H]21	–	–	1410 nM	–
Cn1cc2c(Cl)c(-c3n[nH]c4nc(N5C[C@@H]6[C@H](C5)[C@@]6(CN)c5nccs5)cnc34)ccc2n1	60 nM	13500 nM	4 nM	–
NC[C@]1(c2ccccc2)[C@@H]2CCN(c3cnc4c(-c5cccc(Cl)c5Cl)n[nH]c4n3)C[C@@H]21	260 nM	389 nM	9 nM	–
Cc1csc([C@@]2(CN)[C@@H]3CN(c4cnc5c(-c6ccc7nn(C)cc7c6Cl)n[nH]c5n4)C[C@@H]32)n1	24 nM	> 30000 nM	5 nM	IC50 [3]: 166 nM; solubility kinetic [6]: 124 µM (≈ 61 µg/mL); solubility kinetic [7]: 168 µM (≈ 82.7 µg/mL); solubility kinetic [8]: 175 µM (≈ 86.1 µg/mL); Papp [9]: 9.2 ×10⁻⁶ cm/s; Ratio [10]: 0.7; microsomal CLint at 1 µM [11]: 25 µL/min/mg; microsomal CLint at 1 µM [12]: 13.5 µL/min/mg; clearance [13]: 16.2 mL/min/kg; Vd [14]: 1 L/kg; half-life [15]: 1.9 h; Cmax [16]: 10 nM; AUC at 24 h [17]: 0.01 µM·h; bioavailability [18]: 1.2%; AUC at 24 h [19]: 0.58 µM·h; AUC at 24 h [20]: 0.05 µM·h
NC[C@]1(c2ccccc2)[C@@H]2CCN(c3cnc(Sc4cccnc4C(F)(F)F)c(N)n3)C[C@@H]21	–	–	360 nM	–
Cc1csc([C@@]2(CN)[C@@H]3CN(c4cnc5c(-c6ccn7nccc7c6Cl)n[nH]c5n4)C[C@@H]32)n1	65 nM	235 nM	4 nM	–
Cc1csc([C@@]2(CN)[C@@H]3CCN(c4cnc5c(-c6cccc(Cl)c6Cl)n[nH]c5n4)C[C@@H]32)n1 (racemic)	71 nM	250 nM	6 nM	–
